In patent publication US8362000B2, “Azetidinyl diamides as monoacylglycerol lipase inhibitors” (Janssen Pharmaceutica NV, priority 2009, dated 2013):

Molecular target: T1, mutant MGL (Homo sapiens, UniProt Q99685, L169S/L176S)
T1 sequence (Q99685 1-303 L169S/L176S): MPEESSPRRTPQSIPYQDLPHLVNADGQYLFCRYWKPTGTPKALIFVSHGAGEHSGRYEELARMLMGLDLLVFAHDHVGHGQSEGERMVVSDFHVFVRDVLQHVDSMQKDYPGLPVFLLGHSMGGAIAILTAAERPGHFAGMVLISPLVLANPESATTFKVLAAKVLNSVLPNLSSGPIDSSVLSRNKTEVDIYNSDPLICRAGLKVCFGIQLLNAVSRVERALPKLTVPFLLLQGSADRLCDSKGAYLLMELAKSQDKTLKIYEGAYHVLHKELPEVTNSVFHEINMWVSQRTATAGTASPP
Test: MGL ThermoFluor assay - mutant
Format: binding
Conditions: ThermoFluor concentration-response, read-out: MGL mutant ThermoFluor Kd

Row | SMILES | Kd
1 | O=C(c1ccccc1)N1CCN(C2CN(C(=O)c3ccc(NCc4ccccc4Cl)cc3)C2)CC1 [Cpd 492, N-(2-Chlorobenzyl)-4-({3-[4-(phenylcarbonyl)piperazin-1-yl]azetidin-1-yl}carbonyl)aniline] | 0.167 µM
2 | O=C(c1ccc(-c2ccccc2)cc1)N1CC(N2CCN(C(=O)c3cncs3)CC2)C1 [Cpd 8, 1-[1-(Biphenyl-4-ylcarbonyl)azetidin-3-yl]-4-(1,3-thiazol-5-ylcarbonyl)piperazine] | 0.111 µM
3 | O=C(c1ccccc1)N1CCN(C2CN(C(=O)c3ccc(OCc4ccccc4)cc3)C2)CC1 [Cpd 35, 1-(1-{[4-(Benzyloxy)phenyl]carbonyl}azetidin-3-yl)-4-(phenylcarbonyl)piperazine] | 0.0833 µM
4 | O=C(c1ccccc1)N1CCN(C2CN(C(=O)c3ccc(NCc4ccc(F)c(C(F)(F)F)c4)cc3)C2)CC1 [Cpd 494, N-[4-Fluoro-3-(trifluoromethyl)benzyl]-4-({3-[4-(phenylcarbonyl)piperazin-1-yl]azetidin-1-yl}carbonyl)aniline] | 0.1 µM
5 | O=C(C#Cc1ccccc1)N1CC(N2CCN(C(=O)c3nccs3)CC2)C1 [Cpd 477] | 2 µM
6 | O=C(c1ccccc1)N1CCN(C2CN(C(=O)c3cccnc3Oc3ccccc3)C2)CC1 [Cpd 110, 1-{1-[(2-Phenoxypyridin-3-yl)carbonyl]azetidin-3-yl}-4-(phenylcarbonyl)piperazine] | 5 µM
7 | CC1CN(C2CN(C(=O)c3cccc(-c4ccccc4)c3)C2)CCN1C(=O)c1nccs1 (stereo not drawn) [Cpd 116] | 2 µM
8 | O=C(c1ccccc1)C1CCC(C(=O)N2CC(N3CCN(C(=O)c4cscn4)CC3)C2)CC1 (stereo not drawn) [Cpd 478] | 2 µM
9 | CN(C)c1ccc(C(=O)N2CC(N3CCN(C(=O)c4ccccc4)CC3)C2)cc1 [Cpd 31, N,N-Dimethyl-4-({3-[4-(phenylcarbonyl)piperazin-1-yl]azetidin-1-yl}carbonyl)aniline] | 1.43 µM
10 | O=C(c1ccccc1)N1CCN(C2CN(C(=O)c3ccc(-c4ccccc4)c(F)c3)C2)CC1 [Cpd 81, 1-{1-[(2-Fluorobiphenyl-4-yl)carbonyl]azetidin-3-yl}-4-(phenylcarbonyl)piperazine] | 0.0667 µM
11 | CS(=O)(=O)c1ccc(C(=O)N2CC(N3CCN(C(=O)c4ccccc4)CC3)C2)cc1 [Cpd 472, 1-(1-{[4-(Methylsulfonyl)phenyl]carbonyl}azetidin-3-yl)-4-(phenylcarbonyl)piperazine] | 6.67 µM

More lines, now with the values ahead:

Row | Kd | SMILES
12 | 9.44 µM | O=C(c1cc(F)cc(Br)c1)N1CC(N2CCN(C(=O)c3cscn3)CC2)C1 [Cpd 926]
13 | 1 µM | O=C(c1ccc(Oc2ccccn2)cc1)N1CC(N2CCN(C(=O)c3nccs3)CC2)C1 [Cpd 913, 1-(1-{[4-(Pyridin-2-yloxy)phenyl]carbonyl}azetidin-3-yl)-4-(1,3-thiazol-2-ylcarbonyl)piperazine]
14 | 1.33 µM | O=C(c1cc(Br)cc(C(F)(F)F)c1)N1CC(N2CCN(C(=O)c3nccs3)CC2)C1 [Cpd 910]
15 | 0.334 µM | Cc1nc(COc2ccc(Cl)cc2)sc1C(=O)N1CC(N2CCN(C(=O)c3cscn3)CC2)C1 [Cpd 966]
16 | 0.216 µM | O=C(c1ccc(OCc2cccc(Cl)c2)cc1)N1CC(N2CCN(C(=O)C(F)(F)F)CC2)C1 [Cpd 958]
17 | 20 µM | O=C(c1ccccc1)N1CCN(C2CN(C(=O)c3ccc(Oc4ccccn4)cc3)C2)CC1 [Cpd 1484]
18 | 3.89 µM | O=C(c1ccc(Oc2ccccn2)cc1)N1CC(N2CCN(C(=O)c3cscn3)CC2)C1 [Cpd 922]
19 | 9.93 µM | O=C(c1cc(Br)cc(C(F)(F)F)c1)N1CC(N2CCN(C(=O)c3cscn3)CC2)C1 [Cpd 923]
20 | 0.097 µM | O=C(c1ccccc1)N1CCN(C2CN(C(=O)c3ccc(CNc4c(F)cccc4F)cc3)C2)CC1 [Cpd 556]

Same assay, conditions: ThermoFluor thermal stability binding assay, read-out: MGL mutant ThermoFluor Kd

Row | SMILES | Kd
21 | Cc1cc(-c2cccc(C(F)(F)F)c2)ccc1C(=O)N1CC(N2CCN(C(=O)c3ccccc3)CC2)C1 [Cpd 238, 1-(1-{[3-Methyl-3′-(trifluoromethyl)biphenyl-4-yl]carbonyl}azetidin-3-yl)-4-(phenylcarbonyl)piperazine] | 0.0333 µM
22 | O=C(c1ccc(OCc2cccc(Cl)c2Cl)c(F)c1)N1CC(N2CCN(C(=O)c3nccs3)CC2)C1 [Cpd 405, 1-[1-({4-[(2,3-Dichlorobenzyl)oxy]-3-fluorophenyl}carbon-yl)azetidin-3-yl]-4-(1,3-thiazol-2-ylcarbonyl)piperazine] | 0.002 µM
23 | CC(=O)N1c2ccc(Br)cc2CCC1C(=O)N1CC(N2CCN(C(=O)c3nccs3)CC2)C1 (stereo not drawn) [Cpd 376, 1-Acetyl-6-bromo-2-({3-[4-(1,3-thiazol-2-ylcarbonyl)piperazin-1-yl]azetidin-1-yl}carbonyl)-1,2,3,4-tetrahydroquinoline] | 7.14 µM
24 | O=C(c1ccccc1)N1CCN(C2CN(C(=O)c3ccc(-c4cccc(C(F)(F)F)c4)cc3F)C2)CC1 [Cpd 246, 1-(1-{[3-Fluoro-3′-(trifluoromethyl)biphenyl-4-yl]carbonyl}azetidin-3-yl)-4-(phenylcarbonyl)piperazine] | 0.0167 µM
25 | O=C(c1ccccc1)N1CCN(C2CN(C(=O)c3ccc(OCc4ccc(C(F)(F)F)c(F)c4)cc3)C2)CC1 [Cpd 395] | 0.159 µM
26 | N#CC=Cc1cccc(-c2ccc(C(=O)N3CC(N4CCN(C(=O)c5nccs5)CC4)C3)cc2)c1 [Cpd 223, 3-[4′-({3-[4-(1,3-Thiazol-2-ylcarbonyl)piperazin-1-yl]azetidin-1-yl}carbonyl)biphenyl-3-yl]prop-2-enenitrile] | 0.0067 µM
27 | O=C(/C=C/c1ccccc1Br)N1CC(N2CCN(C(=O)c3nccs3)CC2)C1 [Cpd 296, 1-{1-[(2E)-3-(2-Bromophenyl)prop-2-enoyl]azetidin-3-yl}-4-(1,3-thiazol-2-ylcarbonyl)piperazine] | 0.476 µM
28 | N#Cc1csc(C(=O)N2CCN(C3CN(C(=O)c4ccc(-c5ccccc5)cc4)C3)CC2)c1 [Cpd 309] | 0.253 µM

Next, values leading:

Row | Kd | SMILES
29 | > 31.2 µM | O=C(c1cscn1)N1CCN(C2CN(C(=O)c3cnn(-c4ccccc4)c3C(F)(F)F)C2)CC1 [Cpd 1477]
30 | 0.535 µM | O=C(c1ccc(OCc2ccc3ccccc3n2)cc1)N1CC(N2CCN(C(=O)c3cscn3)CC2)C1 [Cpd 970]
31 | 12.4 µM | CC(=O)N1CCC(c2ccc(C(=O)N3CC(N4CCN(C(=O)c5ccccc5)CC4)C3)cc2)CC1 [Cpd 546]
32 | 0.246 µM | O=C(c1cscn1)N1CCN(C2CN(C(=O)c3cccc4nc(-c5ccc(Cl)cc5)oc34)C2)CC1 [Cpd 1380, 2-(4-Chlorophenyl)-7-({3-[4-(1,3-thiazol-4-ylcarbonyl)piperazin-1-yl]azetidin-1-yl}carbonyl)-1,3-benzoxazole]
33 | 1.99 µM | O=C(c1ccccc1)N1CCN(C2CN(C(=O)c3ccc(OCc4cncc(Cl)c4)cc3)C2)CC1 [Cpd 554]
34 | 0.652 µM | O=C(c1ccccc1)N1CCN(C2CN(C(=O)c3ccc(OCc4ccc5ccccc5n4)cc3)C2)CC1 [Cpd 560]

Same assay, conditions: ThermoFluor, compound concentration measured by qNMR, read-out: MGL mutant ThermoFluor qKd (using qNMR conc.)

Row | Kd | SMILES
35 | 0.264 µM | Cc1ccnc(-n2ccc3cc(C(=O)N4CC(N5CCN(C(=O)C(F)(F)F)CC5)C4)ccc32)c1 [Cpd 1199, 1-(4-Methylpyridin-2-yl)-5-({3-[4-(trifluoroacetyl)piperazin-1-yl]azetidin-1-yl}carbonyl)-1H-indole]

Same assay, conditions: ThermoFluor, compound concentration measured by qNMR, read-out: MGL mutant ThermoFluor qKd (μM) (using qNMR conc.)

Row | Kd | SMILES
36 | 0.044 µM | Cc1cc(-n2ccc3cc(C(=O)N4CC(N5CCN(C(=O)c6cscn6)CC5)C4)ccc32)ccc1C#N [Cpd 1421, 2-Methyl-4-[5-({3-[4-(1,3-thiazol-4-ylcarbonyl)piperazin-1-yl]azetidin-1-yl}carbonyl)-1H-indol-1-yl]benzonitrile]
